Experimental data: US20080138284A1, “Novel Peptides That Promote Lipid Efflux” (Lipid Sciences, Inc., priority 2006, published 2008)
Ends that are not written are not given here.

What was measured:
[1] = tested on: FU5AH rat hepatoma cells (SR-B1); assay: SR-B1 mediated cholesterol efflux; type: cell-based; conditions: peptide samples run at 30 μg/ml
From the text: (§1) The methods employed in this study have been described in U.S. Pat. Nos. 7,029,863, 7,060,452, U.S. Patent Application Publication No. 2005/0191715, and in Moya et al., Arteriosclerosis & Thrombosis 1994:14:1056-1065 and Liu et al., J. Biol. Chem., 2003:278(44), 42976-42984. SR-B1 mediated cholesterol efflux is examined in FU5AH rat hepatoma cells and ABCA1 mediated cholesterol efflux is examined in J774 mouse macrophage cells as described in these references.

CD11b = CD11b expression in stimulated monocytes by flow cytometry; type: cell-based; conditions: human monocytes, 1 μmol/L PMA, 20 μg/ml apoA-1 or peptide
Procedure: Monocyte Isolation Peripheral whole blood (PWB) is drawn from healthy consenting individuals into syringes containing sodium citrate (final concentration—19.2 mM). Resting human monocytes are isolated from PWB by density centrifugation with Lymphoprep (Axis Shield). Mononuclear cells (MNCs) are collected and monocytes are further separated to purity using the Dynal negative isolation kit (Invitrogen). Monocytes are resuspended in phosphate buffered saline (PBS) and cell number is determined counting cell suspension on an automated hematology analyzer (Sysmex, KX-21N, USA). Purification of HDL and apoA-1 Human plasma apoA-1 is isolated as previously described and the purity determined using total mass spectrometry. Flow Cytometry 100 μL of monocytes are stimulated with either 1 μmol/L phorbol-myristate-acetate (PMA) or 1 μg/ml lipopolysaccharide (LPS) (Sigma, Australia) in the presence or absence of apoA-1 (20 μg/ml), or 20 μg/ml of the test peptides of the present invention. SEQ ID NOs: 72, 80, 89, 354, 355 and 372 are also tested individually. The cells are incubated with the FITC conjugated antibody to either the active epitope of CD11b (eBiosciences, USA, Clone CBRM1/5) or total CD11b (Serotec, USA, Clone ICRF44) for 15 min at 37° C. Cells are then fixed with 4% paraformaldehyde. Samples are controlled for by using the appropriately matched isotype matched negative control (FITC-anti-mouse IgG) (Serotec, USA, Clone W3/25). CD11b expression is measured by flow cytometry using FACS Calibur (Becton Dickinson). Analysis is conducted using the Cell Quest Pro software. Statistical Analysis Values are presented as the mean ±SD or percentage of control ±SD. FACS results are analyzed for statistical significance using one-way ANOVA followed by Bonferroni post-hoc test. Significance is accepted at P<0.05. […] The combined effects of increasing cholesterol efflux and decreasing inflammation indicate that the peptides of the present invention effectively mimic the function of Apo AI and will decrease atherosclerosis.

[2] = tested on: J774 mouse macrophage cells (ABCA1); assay: ABCA1 mediated cholesterol efflux; type: cell-based; conditions: peptide samples run at 30 μg/ml
From the text: as §1

[3] = tested on: apoE knockout mice on a chow diet and LDL receptor knockout mice on a western high fat diet; assay: Aortic arch atherosclerosis in knockout mice; type: in vivo, mouse; conditions: 2 mg/kg to 50 mg/kg iv or ip, 2 to 3 times per week, approximately 6 weeks
Procedure: The ability of the peptides of the present invention and associated fragments are tested in apoE knockout mice on a chow diet and LDL receptor knockout mice on a western high fat diet to determine the effect of these peptides to reduce atherosclerosis in a mouse model system. One or more of the peptides of the present invention, in a range of concentration of 2 mg/kg to 50 mg/kg, is injected intravenously (iv) or intraperitoneally (ip) 2 to 3 times per week over a period of approximately 6 weeks. Aortic atherosclerosis is quantitated in the aortic arch before administration of the peptides and after the 6 week period of administration. (Wu et al., J. Biol. Chem.; 2004: 279, 22913-22925).

[4] = tested on: HeLa cells transfected with only a hygromycin-resistant control plasmid (control cells); assay: Cholesterol and phospholipid efflux from control HeLa cells (incl. time course); type: cell-based, human; conditions: for cholesterol efflux from control cells, time course: rate compared with ABCA1 cells
Procedure: HeLa cells stably transfected with human ABCA1 cDNA (ABCA1 cells) and HeLa cells transfected with only a hygromycin-resistant control plasmid (control cells) are produced and grown in α-modified Eagle's medium (aMEM) plus 10% fetal calf serum, as described by Remaley et al. (Biochem. Biophys. Res. Commun. 280:818-823, 2001). Cholesterol and phospholipid efflux is performed for 18 hours on noncholesterol-loaded cells radiolabeled with either cholesterol or choline (Remaley et al., Arterioscler. Thromb. Vasc. Biol. 17:1813-1821, 1997). Percentage efflux is calculated after subtracting the radioactive counts in the blank media (aMEM plus 1 mg/ml of BSA), and expressed as the percent of total radioactive counts removed from the cells during the efflux period.
ABCA1 cells are used to assess the ability of apoA-I and synthetic peptides to efflux lipid from cells. […] The peptides of the present invention efflux approximately 2- to 4-fold more cholesterol and phospholipid from ABCA1 cells than from control cells. Both the peptides of the present invention and apoA-I began to show saturation for lipid efflux at approximately the same protein concentration of 10 μg/ml.
Cholesterol efflux from ABCA1 cells to apoA-I is first detectable after 2 hours and increases throughout the 30 hour efflux period. […] Overall, the kinetics for cholesterol efflux to peptides of the present invention from ABCA1 cells is similar to that of apoA-I, except that cholesterol efflux is first detectable after 30 minutes.

Row | Substance | effect on cholesterol efflux from the Fu5AH cells (SRB1 pathway) [1] | PMA induced CD11b expression (CD11b) | efflux of cholesterol from J774 macrophage cells (ABCA1 pathway) [2] | atherosclerosis in the aortic arch [3] | removal of cholesterol and phospholipids from control cells relative to Apo A-I [4] | cholesterol efflux from control cells, time course [4]
1 | Ac-Gly Glu Glu Met Arg Asp Arg Ala Arg Ala His Val Asp Ala Leu Arg Thr His Ala Lys Pro Val Leu Leu Glu Ser Phe Lys Val Ser Phe Leu Ser Ala Leu Glu Glu Tyr Thr Lys Lys-NH2 (Ac-GEEMRDRARAHVDALRTHAKPVLLESFKVSFLSALEEYTKK-NH2) [SEQ ID NO:354] | negligible or no effect | significantly reduce PMA induced CD11b expression | stimulate efflux of cholesterol | reduce atherosclerosis in the aortic arch | comparable to or more than that removed by Apo A-I | promote cholesterol efflux from control cells but at a lower rate
2 | Ac-Leu Glu Ser Ala Lys Val Ser Ala Leu Ser Ala Leu Glu Glu Ala Thr Lys Lys Ala Lys Pro Val Leu Leu Glu Ser Phe Lys Val Ser Phe Leu Ser Ala Leu Glu Glu Tyr Thr Lys Lys-NH2 (Ac-LESAKVSALSALEEATKKAKPVLLESFKVSFLSALEEYTKK-NH2) [SEQ ID NO:372] | negligible or no effect | significantly reduce PMA induced CD11b expression | stimulate efflux of cholesterol | reduce atherosclerosis in the aortic arch | comparable to or more than that removed by Apo A-I | promote cholesterol efflux from control cells but at a lower rate
3 | Ac-Ser Asp Glu Leu Arg Gln Arg Leu Ala Ala Arg Leu Glu Ala Leu Lys Glu Asn Ala Lys Pro Val Leu Leu Glu Ser Phe Lys Val Ser Phe Leu Ser Ala Leu Glu Glu Tyr Thr Lys Lys-NH2 (Ac-SDELRQRLAARLEALKENAKPVLLESFKVSFLSALEEYTKK-NH2) [SEQ ID NO:355] | negligible or no effect | significantly reduce PMA induced CD11b expression | stimulate efflux of cholesterol | reduce atherosclerosis in the aortic arch | comparable to or more than that removed by Apo A-I | promote cholesterol efflux from control cells but at a lower rate
4 | GEEMRDRARAHVDALRTHAKPVLLESFKVSFLSALEEYTKK [SEQ ID NO:72] | negligible or no effect | significantly reduce PMA induced CD11b expression | stimulate efflux of cholesterol | reduce atherosclerosis in the aortic arch | comparable to or more than that removed by Apo A-I | promote cholesterol efflux from control cells but at a lower rate
5 | LESAKVSALSALEEATKKAKPVLLESFKVSFLSALEEYTKK [SEQ ID NO:89] | negligible or no effect | significantly reduce PMA induced CD11b expression | stimulate efflux of cholesterol | reduce atherosclerosis in the aortic arch | comparable to or more than that removed by Apo A-I | promote cholesterol efflux from control cells but at a lower rate
6 | SDELRQRLAARLEALKENAKPVLLESFKVSFLSALEEYTKK [SEQ ID NO:80] | negligible or no effect | significantly reduce PMA induced CD11b expression | stimulate efflux of cholesterol | reduce atherosclerosis in the aortic arch | comparable to or more than that removed by Apo A-I | promote cholesterol efflux from control cells but at a lower rate
